Measured values reported in ChEMBL document CHEMBL1201862, “PubChem BioAssay data set” (2004).
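1) Cells in 96-well plates. 2) Compound, 48 h, 5 concentrations. 3) Linear interpolation between surrounding doses. 4) Unreached endpoint = highest concentration. At the GI50, growth is halved.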 Active and inactive are the calls of the source. Cut-off read from the data, not from the text of the source: active = GI50 up to about 1.1 µM and inactive = higher.

Legend:
Assay in all cases: NCI anticancer screen, dose series, 48 h
RXF 393 = tested on: RXF 393
M14 = tested on: M14
SR = tested on: SR
SN12C = tested on: SN12C
MDA-MB-435 = tested on: MDA-MB-435
SF-268 = tested on: SF-268
SK-MEL-2 = tested on: SK-MEL-2
IGROV-1 = tested on: IGROV-1
786-0 = tested on: 786-0
NCI-H460 = tested on: NCI-H460
MOLT-4 = tested on: MOLT-4
HCT-116 = tested on: HCT-116
SW-620 = tested on: SW-620
DU-145 = tested on: DU-145
LOX IMVI = tested on: LOX IMVI
HOP-92 = tested on: HOP-92
MDA-N = tested on: MDA-N
PC-3 = tested on: PC-3
MCF7 = tested on: MCF7
SK-MEL-28 = tested on: SK-MEL-28

Measured: GI50

O=C1CS(=O)(=O)C(c2cccc(Oc3ccccc3)c2)N1c1cccc(Cl)c1 (stereo not given)
inactive: RXF 393 23.3 µM | M14 26.7 µM | SR 12.1 µM | SN12C 31.8 µM | MDA-MB-435 13.9 µM | SF-268 23.2 µM | SK-MEL-2 16.3 µM | IGROV-1 19.1 µM | 786-0 19.8 µM | NCI-H460 18.1 µM | MOLT-4 19.1 µM | HCT-116 13.8 µM | SW-620 24.8 µM | DU-145 66.8 µM | LOX IMVI 15.7 µM | HOP-92 11.6 µM | MDA-N 16.6 µM | PC-3 20.6 µM | MCF7 14.8 µM | SK-MEL-28 36.6 µM

O=C1O[C@H]2[C@H](OC(=O)c3cc(O)c(O)c(O)c3)[C@@H](OC(=O)c3cc(O)c(O)c4c3[C@@H]3C1=CC(=O)C(O)(O)C3(O)O4)[C@H](OC(=O)c1cc(O)c(O)c(O)c1)O[C@@H]2COC(=O)c1cc(O)c(O)c(O)c1 (stereo not given in full) [TERCHEBIN]
inactive: RXF 393 > 100 µM | M14 60.7 µM | SR 44.2 µM | SN12C > 100 µM | MDA-MB-435 38.4 µM | SF-268 59.3 µM | SK-MEL-2 > 100 µM | IGROV-1 47.8 µM | 786-0 60.8 µM | NCI-H460 30.1 µM | MOLT-4 41.9 µM | HCT-116 33 µM | SW-620 63.5 µM | DU-145 76 µM | LOX IMVI 25.1 µM | HOP-92 47.8 µM | MDA-N 53.5 µM | PC-3 34.9 µM | MCF7 74.5 µM | SK-MEL-28 > 100 µM
